This passage reports Activity, inhibition and Ratio results from ChEMBL document CHEMBL1157003, “'Novel alkyl side chain sulfone 1alpha,25-dihydroxyvitamin D3 analogs: a comparison of in vitro antiproliferative activities and in vivo calcemic activities'” (2009).

Active and inactive are the calls of the source. The rule behind the calls is not given here.

One assay has as its system Keratinocyte. The assay is described as follows: Antiproliferative activity against mouse keratinocytes. The format is functional, cell-based.
For a further assay, the system named is Rattus norvegicus. The assay is described as follows: Inhibition of calciuria in rat at 10 ug/kg, po administered qd for 1 week. The class given is functional, organism-based.
Assay [1] can be described thus: Antiproliferative activity against mouse keratinocytes at 10 nM relative to calcitrol. The class given is functional, Keratinocyte.

Regarding `C=C1/C(=C\C=C2/CCC[C@]3(C)C([C@H](C)CCCS(=O)(=O)C(C)C)=CC[C@@H]23)C[C@@H](O)C[C@@H]1O`, the result in the assay with Keratinocyte was Active. Further, the inhibition entry in the assay on Rattus norvegicus was “Active”. Regarding `C=C1/C(=C\C=C2/CCC[C@]3(C)C([C@H](C)CCCS(=O)(=O)C(F)(F)F)=CC[C@@H]23)C[C@@H](O)C[C@@H]1O`, the Ratio in assay [1] stood at 2. The inhibition result with Rattus norvegicus was “Active”. For `C=C1/C(=C\C=C2/CCC[C@]3(C)C([C@H](C)CCCS(C)(=O)=O)=CC[C@@H]23)C[C@@H](O)C[C@@H]1O`, the outcome in the assay on Keratinocyte was Active. Moreover, the inhibition entry with Rattus norvegicus is “Active”. On to `C=C1/C(=C\C=C2/CCC[C@]3(C)[C@@H]([C@H](C)CCCC(C)(C)O)CC[C@@H]23)C[C@@H](O)C[C@@H]1O`, for which the inhibition entry in the assay with Rattus norvegicus is “Active”.
